{
  "source": "patent US10835533B2",
  "about": "“1 -((3S,4R)-4-(3-fluorophenyl)-1-(2-methoxyethyl)pyrrolidin-3-yl)-3-(4-methyl-3-(2-methylpyrimidin-5-yl)-1-phenyl-1H-pyrazol-5-yl)urea as a TrkA kinase inhibitor” (Array BioPharma Inc., priority 2014, dated 2020)",
  "assay_in_all_cases": "KinaseProfiler kinase profiling",
  "format_in_all_cases": "biochemical",
  "conditions_in_all_cases": "10 μM, ATP near Km",
  "key": {"[1]": {"target": "T1, AKT1 (Homo sapiens, UniProt P31749)", "T1 construct": "purchased Millipore, Inc. (KinaseProfiler service)", "method_in_brief": "(§1)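 Single test compound screened at 10 μM against each kinase, with ATP near the Km of that kinase. Run in duplicate. Activity is given as percent of control, the mean of both replicates.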"}, "[2]": {"target": "T2, AURKA (Homo sapiens, UniProt O14965)", "T2 construct": "purchased Millipore, Inc. (KinaseProfiler service)", "method_in_brief": "as §1"}, "[3]": {"target": "T3, Bmx (Homo sapiens, UniProt P51813)", "T3 construct": "purchased Millipore, Inc. (KinaseProfiler service)", "method_in_brief": "as §1"}, "[4]": {"target": "T4, CDK1/cyclinB (Homo sapiens, UniProt P06493)", "T4 construct": "purchased Millipore, Inc. (KinaseProfiler service)", "method_in_brief": "as §1"}, "[5]": {"target": "T5, CDK3/cyclinE (Homo sapiens, UniProt Q00526)", "T5 construct": "purchased Millipore, Inc. (KinaseProfiler service)", "method_in_brief": "as §1"}, "[6]": {"target": "T6, CLK3 (Homo sapiens, UniProt P49761)", "T6 construct": "purchased Millipore, Inc. (KinaseProfiler service)", "method_in_brief": "as §1"}, "[7]": {"target": "T7, DCAMKL2 (Homo sapiens, UniProt Q8N568)", "T7 construct": "purchased Millipore, Inc. (KinaseProfiler service)", "method_in_brief": "as §1"}, "[8]": {"target": "T8, EGFR (Homo sapiens, UniProt P00533)", "T8 construct": "purchased Millipore, Inc. (KinaseProfiler service)", "method_in_brief": "as §1"}, "[9]": {"target": "T9, EphA1 (Homo sapiens, UniProt P21709)", "T9 construct": "purchased Millipore, Inc. (KinaseProfiler service)", "T9 sequence (P21709 26-976)": "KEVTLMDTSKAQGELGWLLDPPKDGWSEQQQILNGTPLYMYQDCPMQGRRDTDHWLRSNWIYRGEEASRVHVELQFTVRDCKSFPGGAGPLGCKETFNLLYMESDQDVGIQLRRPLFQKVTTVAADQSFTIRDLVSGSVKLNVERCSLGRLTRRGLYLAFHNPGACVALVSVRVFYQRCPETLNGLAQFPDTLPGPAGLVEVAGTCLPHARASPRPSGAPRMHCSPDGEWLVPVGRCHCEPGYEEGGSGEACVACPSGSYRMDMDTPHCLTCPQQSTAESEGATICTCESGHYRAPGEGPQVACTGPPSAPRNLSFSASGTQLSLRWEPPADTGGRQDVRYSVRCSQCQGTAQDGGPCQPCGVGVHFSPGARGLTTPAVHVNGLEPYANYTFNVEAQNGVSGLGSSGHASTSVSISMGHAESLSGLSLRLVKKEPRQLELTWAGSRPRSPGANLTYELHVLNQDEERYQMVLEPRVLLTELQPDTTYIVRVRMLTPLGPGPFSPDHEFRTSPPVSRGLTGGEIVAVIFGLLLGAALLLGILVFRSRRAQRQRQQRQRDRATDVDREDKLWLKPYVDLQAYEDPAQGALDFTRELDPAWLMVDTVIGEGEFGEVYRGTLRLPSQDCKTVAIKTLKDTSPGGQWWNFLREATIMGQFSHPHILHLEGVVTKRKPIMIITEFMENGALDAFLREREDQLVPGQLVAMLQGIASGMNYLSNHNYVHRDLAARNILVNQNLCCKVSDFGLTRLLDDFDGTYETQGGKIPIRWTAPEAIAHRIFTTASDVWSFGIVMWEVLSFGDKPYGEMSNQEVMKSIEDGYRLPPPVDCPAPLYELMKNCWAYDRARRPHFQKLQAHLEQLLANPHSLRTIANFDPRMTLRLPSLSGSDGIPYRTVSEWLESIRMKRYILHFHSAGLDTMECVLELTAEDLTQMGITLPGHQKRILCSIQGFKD", "method_in_brief": "as §1"}, "[10]": {"target": "T10, EphA3 (Homo sapiens, UniProt P29320)", "T10 construct": "purchased Millipore, Inc. (KinaseProfiler service)", "method_in_brief": "as §1"}, "[11]": {"target": "T11, EphA4 (Homo sapiens, UniProt P54764)", "T11 construct": "purchased Millipore, Inc. (KinaseProfiler service)", "method_in_brief": "as §1"}, "[12]": {"target": "T12, EphA7 (Homo sapiens, UniProt Q15375)", "T12 construct": "purchased Millipore, Inc. (KinaseProfiler service)", "method_in_brief": "as §1"}, "[13]": {"target": "T13, FAK2 (Homo sapiens, UniProt Q14289)", "T13 construct": "purchased Millipore, Inc. (KinaseProfiler service)", "method_in_brief": "as §1"}, "[14]": {"target": "T14, Fer (Homo sapiens, UniProt P16591)", "T14 construct": "purchased Millipore, Inc. (KinaseProfiler service)", "method_in_brief": "as §1"}, "[15]": {"target": "T15, Fes (Homo sapiens, UniProt P07332)", "T15 construct": "purchased Millipore, Inc. (KinaseProfiler service)", "method_in_brief": "as §1"}, "[16]": {"target": "T16, Fyn (Homo sapiens, UniProt P06241)", "T16 construct": "purchased Millipore, Inc. (KinaseProfiler service)", "method_in_brief": "as §1"}, "[17]": {"target": "T17, IKKalpha (Homo sapiens, UniProt O15111)", "T17 construct": "purchased Millipore, Inc. (KinaseProfiler service)", "method_in_brief": "as §1"}, "[18]": {"target": "T18, IR (Homo sapiens, UniProt P06213)", "T18 construct": "purchased Millipore, Inc. (KinaseProfiler service)", "method_in_brief": "as §1"}, "[19]": {"target": "T19, JNK3 (Homo sapiens, UniProt P53779)", "T19 construct": "purchased Millipore, Inc. (KinaseProfiler service)", "method_in_brief": "as §1"}, "[20]": {"target": "T20, LOK (Homo sapiens, UniProt O94804)", "T20 construct": "purchased Millipore, Inc. (KinaseProfiler service)", "method_in_brief": "as §1"}, "[21]": {"target": "T21, MKNK2 (Homo sapiens, UniProt Q9HBH9)", "T21 construct": "purchased Millipore, Inc. (KinaseProfiler service)", "T21 sequence (Q9HBH9 whole entry)": "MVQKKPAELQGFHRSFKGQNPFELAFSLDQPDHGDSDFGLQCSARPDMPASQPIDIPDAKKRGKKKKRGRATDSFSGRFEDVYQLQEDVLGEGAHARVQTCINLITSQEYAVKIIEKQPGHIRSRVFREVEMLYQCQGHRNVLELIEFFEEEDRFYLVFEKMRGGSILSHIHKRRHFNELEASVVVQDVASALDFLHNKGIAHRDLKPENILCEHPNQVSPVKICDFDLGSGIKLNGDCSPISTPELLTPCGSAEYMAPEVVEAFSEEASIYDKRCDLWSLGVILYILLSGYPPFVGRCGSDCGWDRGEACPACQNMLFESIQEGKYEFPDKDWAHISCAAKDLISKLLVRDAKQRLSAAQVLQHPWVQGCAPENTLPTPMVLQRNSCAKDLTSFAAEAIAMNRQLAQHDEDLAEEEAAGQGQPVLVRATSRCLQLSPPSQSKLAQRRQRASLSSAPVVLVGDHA", "method_in_brief": "as §1"}, "[22]": {"target": "T22, MRCKbeta (Homo sapiens, UniProt Q9Y5S2)", "T22 construct": "purchased Millipore, Inc. (KinaseProfiler service)", "method_in_brief": "as §1"}, "[23]": {"target": "T23, MSK2 (Homo sapiens, UniProt O75676)", "T23 construct": "purchased Millipore, Inc. (KinaseProfiler service)", "method_in_brief": "as §1"}, "[24]": {"target": "T24, MST1 (Homo sapiens, UniProt Q13043)", "T24 construct": "purchased Millipore, Inc. (KinaseProfiler service)", "method_in_brief": "as §1"}, "[25]": {"target": "T25, Mer (Homo sapiens, UniProt Q12866)", "T25 construct": "purchased Millipore, Inc. (KinaseProfiler service)", "method_in_brief": "as §1"}, "[26]": {"target": "T26, NEK3 (Homo sapiens, UniProt P51956)", "T26 construct": "purchased Millipore, Inc. (KinaseProfiler service)", "method_in_brief": "as §1"}, "[27]": {"target": "T27, PAK2 (Homo sapiens, UniProt Q13177)", "T27 construct": "purchased Millipore, Inc. (KinaseProfiler service)", "method_in_brief": "as §1"}, "[28]": {"target": "T28, PAK6 (Homo sapiens, UniProt Q9NQU5)", "T28 construct": "purchased Millipore, Inc. (KinaseProfiler service)", "method_in_brief": "as §1"}, "[29]": {"target": "T29, PDK1 (Homo sapiens, UniProt O15530)", "T29 construct": "purchased Millipore, Inc. (KinaseProfiler service)", "method_in_brief": "as §1"}, "[30]": {"target": "T30, PKCdelta (Homo sapiens, UniProt Q05655)", "T30 construct": "purchased Millipore, Inc. (KinaseProfiler service)", "method_in_brief": "as §1"}, "[31]": {"target": "T31, PRK2 (Homo sapiens, UniProt Q16513)", "T31 construct": "purchased Millipore, Inc. (KinaseProfiler service)", "T31 sequence (Q16513 whole entry)": "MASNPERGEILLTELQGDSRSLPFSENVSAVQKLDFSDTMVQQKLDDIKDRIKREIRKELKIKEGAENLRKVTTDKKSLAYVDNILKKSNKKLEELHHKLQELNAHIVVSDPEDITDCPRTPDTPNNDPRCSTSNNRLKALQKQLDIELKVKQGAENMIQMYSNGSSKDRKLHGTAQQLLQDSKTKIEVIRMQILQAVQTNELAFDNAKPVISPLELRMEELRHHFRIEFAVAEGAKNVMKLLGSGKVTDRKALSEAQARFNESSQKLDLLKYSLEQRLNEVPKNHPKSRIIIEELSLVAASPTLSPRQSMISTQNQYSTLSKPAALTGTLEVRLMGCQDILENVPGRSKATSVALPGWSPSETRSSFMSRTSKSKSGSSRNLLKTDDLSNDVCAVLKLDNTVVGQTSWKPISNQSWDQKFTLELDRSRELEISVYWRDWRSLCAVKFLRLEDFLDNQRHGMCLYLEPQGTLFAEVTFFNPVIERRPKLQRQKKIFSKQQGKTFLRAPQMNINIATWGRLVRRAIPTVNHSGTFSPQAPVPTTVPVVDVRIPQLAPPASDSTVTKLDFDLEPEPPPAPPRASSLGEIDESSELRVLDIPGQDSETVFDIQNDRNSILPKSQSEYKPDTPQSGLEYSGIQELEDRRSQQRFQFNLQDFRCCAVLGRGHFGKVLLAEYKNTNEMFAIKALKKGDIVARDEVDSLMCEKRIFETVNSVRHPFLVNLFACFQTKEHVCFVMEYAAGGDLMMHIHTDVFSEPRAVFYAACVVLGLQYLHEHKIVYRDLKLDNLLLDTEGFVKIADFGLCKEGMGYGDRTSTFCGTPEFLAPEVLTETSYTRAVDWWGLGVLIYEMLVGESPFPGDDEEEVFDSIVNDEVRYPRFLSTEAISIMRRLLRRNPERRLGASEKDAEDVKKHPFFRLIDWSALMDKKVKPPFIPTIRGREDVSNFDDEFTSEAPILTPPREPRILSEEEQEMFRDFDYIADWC", "method_in_brief": "as §1"}, "[32]": {"target": "T32, PRKG1beta (Homo sapiens, UniProt Q13976)", "T32 construct": "purchased Millipore, Inc. (KinaseProfiler service)", "method_in_brief": "as §1"}, "[33]": {"target": "T33, PTK5 (Homo sapiens, UniProt P42685)", "T33 construct": "purchased Millipore, Inc. (KinaseProfiler service)", "T33 sequence (P42685 whole entry)": "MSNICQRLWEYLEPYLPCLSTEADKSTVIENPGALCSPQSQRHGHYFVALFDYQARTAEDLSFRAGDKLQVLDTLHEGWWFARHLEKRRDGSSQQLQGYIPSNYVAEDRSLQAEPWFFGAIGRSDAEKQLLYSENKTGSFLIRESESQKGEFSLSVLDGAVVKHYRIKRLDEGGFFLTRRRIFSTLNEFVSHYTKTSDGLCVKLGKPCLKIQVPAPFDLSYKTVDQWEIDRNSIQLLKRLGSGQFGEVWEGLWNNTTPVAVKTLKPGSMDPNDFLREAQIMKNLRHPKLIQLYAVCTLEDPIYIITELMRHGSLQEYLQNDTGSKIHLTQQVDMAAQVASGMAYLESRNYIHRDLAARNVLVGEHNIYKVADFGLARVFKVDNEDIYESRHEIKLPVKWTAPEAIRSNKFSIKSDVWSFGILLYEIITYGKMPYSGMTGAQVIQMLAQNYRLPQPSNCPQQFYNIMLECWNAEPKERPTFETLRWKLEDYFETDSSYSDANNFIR", "method_in_brief": "as §1"}, "[34]": {"target": "T34, PTK6 (Homo sapiens, UniProt Q13882)", "T34 construct": "purchased Millipore, Inc. (KinaseProfiler service)", "method_in_brief": "as §1"}, "[35]": {"target": "T35, ROCK-I (Homo sapiens, UniProt Q13464)", "T35 construct": "purchased Millipore, Inc. (KinaseProfiler service)", "method_in_brief": "as §1"}, "[36]": {"target": "T36, Rse (Homo sapiens, UniProt Q06418)", "T36 construct": "purchased Millipore, Inc. (KinaseProfiler service)", "method_in_brief": "as §1"}, "[37]": {"target": "T37, SRPK1 (Homo sapiens, UniProt Q96SB4)", "T37 construct": "purchased Millipore, Inc. (KinaseProfiler service)", "T37 sequence (Q96SB4 whole entry)": "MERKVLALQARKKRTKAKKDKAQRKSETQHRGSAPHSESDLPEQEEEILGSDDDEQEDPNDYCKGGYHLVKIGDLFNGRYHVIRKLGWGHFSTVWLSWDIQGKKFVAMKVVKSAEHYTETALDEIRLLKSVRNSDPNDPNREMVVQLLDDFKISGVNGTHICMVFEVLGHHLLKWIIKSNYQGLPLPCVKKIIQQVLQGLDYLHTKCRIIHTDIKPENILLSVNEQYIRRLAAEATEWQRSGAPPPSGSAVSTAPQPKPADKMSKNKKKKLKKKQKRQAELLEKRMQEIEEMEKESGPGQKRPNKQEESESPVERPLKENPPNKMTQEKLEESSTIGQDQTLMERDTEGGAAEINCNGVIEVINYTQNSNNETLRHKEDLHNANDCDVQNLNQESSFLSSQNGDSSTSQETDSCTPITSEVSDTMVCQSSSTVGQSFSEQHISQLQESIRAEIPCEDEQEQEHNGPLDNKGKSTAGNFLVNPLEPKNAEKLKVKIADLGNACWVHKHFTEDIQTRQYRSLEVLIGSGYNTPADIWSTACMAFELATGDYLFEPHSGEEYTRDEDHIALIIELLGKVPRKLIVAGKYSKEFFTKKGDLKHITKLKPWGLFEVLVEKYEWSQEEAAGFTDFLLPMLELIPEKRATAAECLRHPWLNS", "method_in_brief": "as §1"}, "[38]": {"target": "T38, Syk (Homo sapiens, UniProt P43405)", "T38 construct": "purchased Millipore, Inc. (KinaseProfiler service)", "method_in_brief": "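The compound was assayed at 10 μM in duplicate, using an ATP level near the Km determined for each individual kinase. Values were reported as percent of control and averaged across the two runs.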"}, "[39]": {"target": "T39, TAO2 (Homo sapiens, UniProt Q9UL54)", "T39 construct": "purchased Millipore, Inc. (KinaseProfiler service)", "T39 sequence (Q9UL54 whole entry)": "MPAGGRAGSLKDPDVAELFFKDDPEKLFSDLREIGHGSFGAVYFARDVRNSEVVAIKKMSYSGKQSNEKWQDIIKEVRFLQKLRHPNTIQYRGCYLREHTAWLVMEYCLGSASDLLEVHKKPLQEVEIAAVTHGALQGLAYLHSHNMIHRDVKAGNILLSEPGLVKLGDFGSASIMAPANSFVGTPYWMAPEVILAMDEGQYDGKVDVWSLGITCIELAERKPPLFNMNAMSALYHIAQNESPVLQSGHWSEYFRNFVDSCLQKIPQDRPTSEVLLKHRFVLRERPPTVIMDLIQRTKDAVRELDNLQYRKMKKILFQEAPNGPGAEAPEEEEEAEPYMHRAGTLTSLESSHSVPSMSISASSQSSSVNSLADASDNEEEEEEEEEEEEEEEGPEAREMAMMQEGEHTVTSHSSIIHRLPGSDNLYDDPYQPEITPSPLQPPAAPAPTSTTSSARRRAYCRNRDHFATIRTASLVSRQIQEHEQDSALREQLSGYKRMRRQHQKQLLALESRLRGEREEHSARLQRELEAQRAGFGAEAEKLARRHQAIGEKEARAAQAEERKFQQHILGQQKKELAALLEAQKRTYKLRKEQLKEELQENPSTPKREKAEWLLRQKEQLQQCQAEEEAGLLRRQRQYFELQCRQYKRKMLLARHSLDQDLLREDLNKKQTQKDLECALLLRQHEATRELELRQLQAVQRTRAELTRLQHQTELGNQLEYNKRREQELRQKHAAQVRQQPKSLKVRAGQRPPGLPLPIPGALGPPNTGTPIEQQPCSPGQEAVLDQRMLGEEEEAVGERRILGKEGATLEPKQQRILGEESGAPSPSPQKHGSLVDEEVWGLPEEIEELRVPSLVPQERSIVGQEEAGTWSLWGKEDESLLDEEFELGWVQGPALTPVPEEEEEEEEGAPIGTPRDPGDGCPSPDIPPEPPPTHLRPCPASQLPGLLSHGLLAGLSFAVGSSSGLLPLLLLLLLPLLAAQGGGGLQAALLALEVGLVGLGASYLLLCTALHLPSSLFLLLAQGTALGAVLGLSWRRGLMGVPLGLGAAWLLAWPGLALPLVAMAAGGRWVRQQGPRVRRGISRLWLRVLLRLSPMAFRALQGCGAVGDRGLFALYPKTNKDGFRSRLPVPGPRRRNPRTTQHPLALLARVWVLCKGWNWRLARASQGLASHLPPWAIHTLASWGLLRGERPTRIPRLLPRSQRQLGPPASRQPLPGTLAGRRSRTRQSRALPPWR", "method_in_brief": "as §1"}, "[40]": {"target": "T40, TEC Activated (Homo sapiens, UniProt P42680)", "T40 construct": "purchased Millipore, Inc. (KinaseProfiler service)", "method_in_brief": "as §1"}, "[41]": {"target": "T41, c-RAF (Homo sapiens, UniProt P04049)", "T41 construct": "purchased Millipore, Inc. (KinaseProfiler service)", "method_in_brief": "as §1"}},
  "data": [
    {"smiles": "COCCN1C[C@@H](NC(=O)Nc2c(C)c(-c3cnc(C)nc3)nn2-c2ccccc2)[C@H](c2cccc(F)c2)C1", "note": "[Compound 1, 1-((3S,4R)-4-(3-fluorophenyl)-1-(2-methoxyethyl)pyrrolidin-3-yl)-3-(4-methyl-3-(2-methylpyrimidin-5-yl)-1-phenyl-1H-pyrazol-5-yl)urea]", "values": [
      {"measurement": "Avg POC", "setting": "[1]", "value": 104, "unit": "POC"},
      {"measurement": "Avg POC", "setting": "[2]", "value": 115, "unit": "POC"},
      {"measurement": "Avg POC", "setting": "[3]", "value": 91.5, "unit": "POC"},
      {"measurement": "Avg POC", "setting": "[4]", "value": 108, "unit": "POC"},
      {"measurement": "Avg POC", "setting": "[5]", "value": 94.5, "unit": "POC"},
      {"measurement": "Avg POC", "setting": "[6]", "value": 94.5, "unit": "POC"},
      {"measurement": "Avg POC", "setting": "[7]", "value": 135, "unit": "POC"},
      {"measurement": "Avg POC", "setting": "[8]", "value": 95.5, "unit": "POC"},
      {"measurement": "Avg POC", "setting": "[9]", "value": 94.5, "unit": "POC"},
      {"measurement": "Avg POC", "setting": "[10]", "value": 95.5, "unit": "POC"},
      {"measurement": "Avg POC", "setting": "[11]", "value": 98, "unit": "POC"},
      {"measurement": "Avg POC", "setting": "[12]", "value": 109, "unit": "POC"},
      {"measurement": "Avg POC", "setting": "[13]", "value": 92.5, "unit": "POC"},
      {"measurement": "Avg POC", "setting": "[14]", "value": 103.5, "unit": "POC"},
      {"measurement": "Avg POC", "setting": "[15]", "value": 102.5, "unit": "POC"},
      {"measurement": "Avg POC", "setting": "[16]", "value": 96.5, "unit": "POC"},
      {"measurement": "Avg POC", "setting": "[17]", "value": 101.5, "unit": "POC"},
      {"measurement": "Avg POC", "setting": "[18]", "value": 84.5, "unit": "POC"},
      {"measurement": "Avg POC", "setting": "[19]", "value": 114.5, "unit": "POC"},
      {"measurement": "Avg POC", "setting": "[20]", "value": 125.5, "unit": "POC"},
      {"measurement": "Avg POC", "setting": "[21]", "value": 111, "unit": "POC"},
      {"measurement": "Avg POC", "setting": "[22]", "value": 106.5, "unit": "POC"},
      {"measurement": "Avg POC", "setting": "[23]", "value": 116.5, "unit": "POC"},
      {"measurement": "Avg POC", "setting": "[24]", "value": 107.5, "unit": "POC"},
      {"measurement": "Avg POC", "setting": "[25]", "value": 147.5, "unit": "POC"},
      {"measurement": "Avg POC", "setting": "[26]", "value": 104.5, "unit": "POC"},
      {"measurement": "Avg POC", "setting": "[27]", "value": 105.5, "unit": "POC"},
      {"measurement": "Avg POC", "setting": "[28]", "value": 114.5, "unit": "POC"},
      {"measurement": "Avg POC", "setting": "[29]", "value": 104, "unit": "POC"},
      {"measurement": "Avg POC", "setting": "[30]", "value": 102, "unit": "POC"},
      {"measurement": "Avg POC", "setting": "[31]", "value": 116, "unit": "POC"},
      {"measurement": "Avg POC", "setting": "[32]", "value": 95.5, "unit": "POC"},
      {"measurement": "Avg POC", "setting": "[33]", "value": 105, "unit": "POC"},
      {"measurement": "Avg POC", "setting": "[34]", "value": 106, "unit": "POC"},
      {"measurement": "Avg POC", "setting": "[35]", "value": 98.5, "unit": "POC"},
      {"measurement": "Avg POC", "setting": "[36]", "value": 102.5, "unit": "POC"},
      {"measurement": "Avg POC", "setting": "[37]", "value": 96, "unit": "POC"},
      {"measurement": "Avg POC", "setting": "[38]", "value": 95.5, "unit": "POC"},
      {"measurement": "Avg POC", "setting": "[39]", "value": 100, "unit": "POC"},
      {"measurement": "Avg POC", "setting": "[40]", "value": 97, "unit": "POC"},
      {"measurement": "Avg POC", "setting": "[41]", "value": 101, "unit": "POC"}
    ]}
  ]
}
